Test results as given in the supplement of paper PMC13380429.
Where a name gives a salt, the structure may show the parent alone.

Key:
Settings in all cases: 72 h
Caco-2 [1] = assay: cell viability relative to DMSO; higher = less toxic
Calu-3 [2] = assay: as above
HepG2 [3] = assay: as above
U2OS [4] = assay: as above
Vero E6 [5] = assay: as above
Caco-2 [6] = assay: relative viability EC50 (midpoint between 100% and the lowest measured viability); higher = less toxic
Calu-3 [7] = assay: as above
HepG2 [8] = assay: as above
U2OS [9] = assay: as above
Vero E6 [10] = assay: as above
Caco-2 [11] = assay: drug sensitivity score (DSS) for viability; higher = more toxic; extreme values may be limits of the assay
Calu-3 [12] = assay: as above
HepG2 [13] = assay: as above
U2OS [14] = assay: as above
Vero E6 [15] = assay: as above

| Structure (SMILES) | cell viability (Caco-2 [1]; 1 nM) [%] | cell viability (Caco-2 [1]; 10 nM) [%] | cell viability (Caco-2 [1]; 100 nM) [%] | cell viability (Caco-2 [1]; 1000 nM) [%] | cell viability (Caco-2 [1]; 10000 nM) [%] | cell viability (Calu-3 [2]; 1 nM) [%] | cell viability (Calu-3 [2]; 10 nM) [%] | cell viability (Calu-3 [2]; 100 nM) [%] | cell viability (Calu-3 [2]; 1000 nM) [%] | cell viability (Calu-3 [2]; 10000 nM) [%] | cell viability (HepG2 [3]; 1 nM) [%] | cell viability (HepG2 [3]; 10 nM) [%] | cell viability (HepG2 [3]; 100 nM) [%] | cell viability (HepG2 [3]; 1000 nM) [%] | cell viability (HepG2 [3]; 10000 nM) [%] | cell viability (U2OS [4]; 1 nM) [%] | cell viability (U2OS [4]; 10 nM) [%] | cell viability (U2OS [4]; 100 nM) [%] | cell viability (U2OS [4]; 1000 nM) [%] | cell viability (U2OS [4]; 10000 nM) [%] | cell viability (Vero E6 [5]; 1 nM) [%] | cell viability (Vero E6 [5]; 10 nM) [%] | cell viability (Vero E6 [5]; 100 nM) [%] | cell viability (Vero E6 [5]; 1000 nM) [%] | cell viability (Vero E6 [5]; 10000 nM) [%] | relative viability EC50 (Caco-2 [6]) [µM] | relative viability EC50 (Calu-3 [7]) [µM] | relative viability EC50 (HepG2 [8]) [µM] | relative viability EC50 (U2OS [9]) [µM] | relative viability EC50 (Vero E6 [10]) [µM] | drug sensitivity score (Caco-2 [11]) | drug sensitivity score (Calu-3 [12]) | drug sensitivity score (HepG2 [13]) | drug sensitivity score (U2OS [14]) | drug sensitivity score (Vero E6 [15]) |
| --- | --- | --- | --- | --- | --- | --- | --- | --- | --- | --- | --- | --- | --- | --- | --- | --- | --- | --- | --- | --- | --- | --- | --- | --- | --- | --- | --- | --- | --- | --- | --- | --- | --- | --- | --- |
| c1ccc(Oc2nc(NC3CCCCC3)c3[nH]cnc3n2)cc1 [MRS-3777] | 87 | 104 | 99.6 | 109 | 100 | 92.7 | 95.7 | 102 | 104 | 101 | 110 | 97.5 | 88.7 | 99.2 | 99.4 | 97.5 | 98.8 | 97.5 | 108 | 103 | 98.7 | 96.2 | 93.5 | 97.2 | 78.2 | > 10 | > 10 | > 10 | > 10 | > 10 | 0 | 0 | 0 | 0 | 1.1 |
| c1ccc2sc(SNC3CCCCC3)nc2c1 [N-cyclohexyl-2-benzothiazolesulfenamide] | 92.5 | 102 | 116 | 101 | 105 | 105 | 99.6 | 101 | 84 | 94.7 | 97.5 | 105 | 84.2 | 97.4 | 100 | 95.1 | 95 | 100 | 96.6 | 100 | 110 | 106 | 100 | 107 | 87.1 | > 10 | > 10 | > 10 | > 10 | > 10 | 0 | 1.6 | 0 | 0 | 0 |
| C=CCN1CC[C@]23c4c5ccc(O)c4O[C@H]2C(=O)CC[C@@]3(O)[C@H]1C5 [NALOXONE HYDROCHLORIDE] | 98 | 94.7 | 101 | 100 | 104 | 94.5 | 94.4 | 88.5 | 91 | 99.6 | 106 | 97.9 | 102 | 95.9 | 103 | 103 | 99.7 | 102 | 103 | 100 | 99 | 103 | 104 | 95.9 | 100 | > 10 | > 10 | > 10 | > 10 | > 10 | 0 | 0 | 0 | 0 | 0 |
